# System: yeast genes (expressed mRNA)
# Assay: DNA chip measurement of expressed mRNA of yeast genes after culture with a toxic chemical substance
# Format: cell-based, Saccharomyces cerevisiae S288C
# Conditions: for level of expressed mRNA in the presence of chemical substance / level in the absence of chemical substance: cultured two hours with the chemical substance; for The level of expressed mRNA in the presence of chemical substance/The level of expressed mRNA in the absence of chemical substance: cultured two hours with substance
# In short: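 S. cerevisiae S288C grown at 25 °C in YPD, exposed in log phase for 2 h to a toxicant at growth-inhibiting, non-lethal concentration. Cy3/Cy5-labelled cDNA from poly(A) mRNA hybridized to whole-genome chip at 65 °C >12 h. Ratio to untreated control, ≥2 significant.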
smiles,measurement,setting,value
"[Cl][Hg][Cl] [(3), HgCl2]",level of expressed mRNA in the presence of chemical substance / level in the absence of chemical substance,yeast gene YNL058C,2.1
same,level of expressed mRNA in the presence of chemical substance / level in the absence of chemical substance,yeast gene YNL063W,0.9
same,The level of expressed mRNA in the presence of chemical substance/The level of expressed mRNA in the absence of chemical substance,yeast gene YNL074C,1.8
same,The level of expressed mRNA in the presence of chemical substance/The level of expressed mRNA in the absence of chemical substance,yeast gene YNL092W,2.4
same,The level of expressed mRNA in the presence of chemical substance/The level of expressed mRNA in the absence of chemical substance,yeast gene YNL115C,1.6
same,The level of expressed mRNA in the presence of chemical substance/The level of expressed mRNA in the absence of chemical substance,yeast gene YNL156C,0.9
same,level of expressed mRNA in the presence of chemical substance / level in the absence of chemical substance,yeast gene YNL176C,2.9
same,level of expressed mRNA in the presence of chemical substance / level in the absence of chemical substance,yeast gene YNL194C,2.0
same,level of expressed mRNA in the presence of chemical substance / level in the absence of chemical substance,yeast gene YNL200C,3.6
same,The level of expressed mRNA in the presence of chemical substance/The level of expressed mRNA in the absence of chemical substance,yeast gene YNL234W,0.6
same,level of expressed mRNA in the presence of chemical substance / level in the absence of chemical substance,yeast gene YNL253W,0.6
same,level of expressed mRNA in the presence of chemical substance / level in the absence of chemical substance,yeast gene YNL276C,1.9
same,The level of expressed mRNA in the presence of chemical substance/The level of expressed mRNA in the absence of chemical substance,yeast gene YNL281W,2.0
same,The level of expressed mRNA in the presence of chemical substance/The level of expressed mRNA in the absence of chemical substance,yeast gene YNL305C,2.7
same,level of expressed mRNA in the presence of chemical substance / level in the absence of chemical substance,yeast gene YNR051C,1.1
same,The level of expressed mRNA in the presence of chemical substance/The level of expressed mRNA in the absence of chemical substance,yeast gene YNR068C,2.3
same,level of expressed mRNA in the presence of chemical substance / level in the absence of chemical substance,yeast gene YOL026C,0.7
same,The level of expressed mRNA in the presence of chemical substance/The level of expressed mRNA in the absence of chemical substance,yeast gene YOL032W,2.0
same,The level of expressed mRNA in the presence of chemical substance/The level of expressed mRNA in the absence of chemical substance,yeast gene YOL036W,1.3
same,The level of expressed mRNA in the presence of chemical substance/The level of expressed mRNA in the absence of chemical substance,yeast gene YOL047C,1.1
same,The level of expressed mRNA in the presence of chemical substance/The level of expressed mRNA in the absence of chemical substance,yeast gene YOL071W,1.7
same,The level of expressed mRNA in the presence of chemical substance/The level of expressed mRNA in the absence of chemical substance,yeast gene YOL082W,1.6
same,The level of expressed mRNA in the presence of chemical substance/The level of expressed mRNA in the absence of chemical substance,yeast gene YOL083W,1.2
same,The level of expressed mRNA in the presence of chemical substance/The level of expressed mRNA in the absence of chemical substance,yeast gene YOL117W,0.5
same,The level of expressed mRNA in the presence of chemical substance/The level of expressed mRNA in the absence of chemical substance,yeast gene YOL131W,0.6
same,The level of expressed mRNA in the presence of chemical substance/The level of expressed mRNA in the absence of chemical substance,yeast gene YOL150C,9.9
same,The level of expressed mRNA in the presence of chemical substance/The level of expressed mRNA in the absence of chemical substance,yeast gene YOL162W,1.7
same,The level of expressed mRNA in the presence of chemical substance/The level of expressed mRNA in the absence of chemical substance,yeast gene YOR019W,0.8
same,level of expressed mRNA in the presence of chemical substance / level in the absence of chemical substance,yeast gene YOR022C,1.1
same,level of expressed mRNA in the presence of chemical substance / level in the absence of chemical substance,yeast gene YOR087W,1.8
same,level of expressed mRNA in the presence of chemical substance / level in the absence of chemical substance,yeast gene YOR138C,0.7
same,The level of expressed mRNA in the presence of chemical substance/The level of expressed mRNA in the absence of chemical substance,yeast gene YOR197W,1.1
same,level of expressed mRNA in the presence of chemical substance / level in the absence of chemical substance,yeast gene YOR253W,1.0
same,level of expressed mRNA in the presence of chemical substance / level in the absence of chemical substance,yeast gene YOR267C,1.0
same,level of expressed mRNA in the presence of chemical substance / level in the absence of chemical substance,yeast gene YOR325W,1.5
same,level of expressed mRNA in the presence of chemical substance / level in the absence of chemical substance,yeast gene YPL005W,1.0
same,The level of expressed mRNA in the presence of chemical substance/The level of expressed mRNA in the absence of chemical substance,yeast gene YPL087W,3.0
same,level of expressed mRNA in the presence of chemical substance / level in the absence of chemical substance,yeast gene YPL150W,1.6
same,level of expressed mRNA in the presence of chemical substance / level in the absence of chemical substance,yeast gene YPL152W,1.4
same,level of expressed mRNA in the presence of chemical substance / level in the absence of chemical substance,yeast gene YPL168W,0.5
same,level of expressed mRNA in the presence of chemical substance / level in the absence of chemical substance,yeast gene YPL180W,0.7
same,level of expressed mRNA in the presence of chemical substance / level in the absence of chemical substance,yeast gene YPL188W,2.9
same,The level of expressed mRNA in the presence of chemical substance/The level of expressed mRNA in the absence of chemical substance,yeast gene YPL196W,1.3
same,The level of expressed mRNA in the presence of chemical substance/The level of expressed mRNA in the absence of chemical substance,yeast gene YPL206C,1.4
same,level of expressed mRNA in the presence of chemical substance / level in the absence of chemical substance,yeast gene YPL221W,1.0
same,The level of expressed mRNA in the presence of chemical substance/The level of expressed mRNA in the absence of chemical substance,yeast gene YPL222W,0.8
same,level of expressed mRNA in the presence of chemical substance / level in the absence of chemical substance,yeast gene YPL225W,1.0
same,The level of expressed mRNA in the presence of chemical substance/The level of expressed mRNA in the absence of chemical substance,yeast gene YPR023C,1.2
same,level of expressed mRNA in the presence of chemical substance / level in the absence of chemical substance,yeast gene YPR049C,1.5
same,level of expressed mRNA in the presence of chemical substance / level in the absence of chemical substance,yeast gene YPR146C,1.3
same,level of expressed mRNA in the presence of chemical substance / level in the absence of chemical substance,yeast gene YPR148C,0.8
same,The level of expressed mRNA in the presence of chemical substance/The level of expressed mRNA in the absence of chemical substance,yeast gene YPR151C,1.5
same,level of expressed mRNA in the presence of chemical substance / level in the absence of chemical substance,yeast gene YPR172W,2.2

# — patent US20100041089A1, “IMPROVED METHOD FOR DETECTING CHEMICAL […]” (priority 2006, published 2010)
